Test results from patent US9200009B2, “Polycyclic pyridone derivative having integrase inhibitory activity” (Shionogi & Co., Ltd., priority 2011, dated 2015).

Legend:
[1] = biological target: integrase (Human immunodeficiency virus type 1 group M subtype B, UniProt P04585); experiment: Integrase inhibitory activity (Experimental Example 1); format: biochemical, HIV; conditions: integrase strand transfer ELISA, absorbance OD 405 nm
Experimental: (1) Preparation of DNA Solution
By the same method as that described in Experimental Example 1 of Patent Document 2, a substrate DNA solution (2 pmol/μl) and a target DNA solution (5 pmol/μl) were prepared. […] Each sequence of a substrate DNA and a target DNA is as described in the same Experimental Example.
(2) Measurement of Inhibition Rate (IC50 Value)
Onto Immobilizer—Streptavidin Plates (manufactured by NUNC) was added 100 μl of a substrate DNA solution (2 pmol/μl). After adsorbing at room temperature for 60 minutes under shaking, it was washed with a phosphate buffer two times.
Then, to each well prepared as described above were added 51 μl of a reaction solution prepared from 12 μl of a buffer (composition: 150 mM MOPS (pH 7.2), 75 mM MnCl2, 50 mM 2-mercaptoethanol, 25% glycerol, 500 μg/ml bovine serum albumin-fraction V) and 39 μl of distilled water. Then, 9 μl of an integrase solution (30 pmol) was added, and the mixture was mixed well. To a well as a negative control (NC) was added 9 μl of a diluting solution (composition: 50 mM Hepes (pH 8.0), 10 mM DTT, 10% Glycerol, 0.5 M NaCl), and this was mixed well using a plate mixer.
After the plate was incubated at 30° C. for 60 minutes, the reaction solution was discarded, followed by washing with 200 μl of a washing buffer (composition: 150 mM MOPS (pH 7.2), 50 mM 2-mercaptoethanol, 25% glycerol, 500 μg/ml bovine serum albumin-fraction V) three times.
Then, to each well were added 53 μl of a reaction solution prepared from 12 μl of a buffer (composition: 150 mM MOPS (pH 7.2), 75 mM MgCl2, 50 mM 2-mercaptoethanol, 25% glycerol, 500 μg/ml bovine serum albumin-fraction V) and 41 μl of distilled water. Further, 6 μl of a solution of a test compound in DMSO was added to each well, and 6 μl of DMSO was added to wells as a positive control (PC) and a negative control (NC), followed by mixing well using a plate mixer. After the plate was incubated at 30° C. for 60 minutes, 1 μl of a target DNA (5 pmol/μl) was added, and this was mixed well using a plate mixer.
After each plate was incubated at 30° C. for 10 minutes, the reaction solution was discarded, followed by washing with a phosphate buffer two times. Then, an anti-digoxigenin antibody labeled with alkaline phosphatase (sheep Fab fragment: manufactured by Boehringer) was diluted 2000-fold with an antibody diluting solution, 100 μl of the diluent was added to bind at 30° C. for 1 hour, and this was washed successively with a phosphate buffer containing 0.05% Tween 20 two times, and a phosphate buffer two times. […] C abs.: Absorbance of well of compound NC abs.: Absorbance of NC PC abs.: Absorbance of PC

[2] = system: HIV virus; experiment: Anti-HIV activity in MT-4 cells, MTT (Experimental Example 2); format: cell-based; conditions: Human immunodeficiency virus 1, MT4, 96 h, 50% HIV inhibition concentration, 4 days incubation
Experimental: Previously, a series of two-fold dilution on test samples were carried out in a 96-well plate (50 μL/well). Two plates were made for measuring anti-HIV activity and measuring cytotoxicity. For each agent, measurement in duplicate was carried out. An MT-4 cell suspension of 2.5×10^5/mL was dispensed at 100 μL/well onto the 96-well plate containing the test samples. An HIV virus solution was dispensed at 50 μL/well onto the 96-well plate containing the test samples and the cell. To the plate for measuring cytotoxicity, a culture solution was dispensed at 50 μL/well. It was mixed by a plate mixer, and then incubated in a CO2 incubator for 4 days. […] Thirty microliters of a MTT (3-(4,5-dimethylthiazol-2-yl)-2,5-diphenyltetrazolium bromide) solution was dispensed to each well.
A reaction was allowed to occur in a CO2 incubator for 1 hour. From each well, 150 μL of the supernatant was removed such that cells are not sucked. One-hundred and fifty microliters of a cell lysis solution was added thereto, and then it was mixed well by a plate mixer until the whole cells are lysed. The mixed 96-well plates were measured by a microplate reader at two wavelengths, 560 nm/690 nm. Based on the following calculation formula, 50% HIV inhibition concentration (EC50) was calculated. […]
Based on the following calculation formula, selectivity index was calculated. […]

## C[C@@H]1CCO[C@H]2Cn3cc(-c4ncc(Cc5ccc(F)cc5)s4)c(=O)c(O)c3C(=O)N12 [Example 1]
[1]
  IC50: 3.9 nM

## C[C@@H]1CCO[C@H]2Cn3cc(-c4ncc(Cc5ccc(F)cc5F)s4)c(=O)c(O)c3C(=O)N12 [Example 2]
[1]
  IC50: 2 nM
[2]
  EC50: 2.8 nM

## C[C@@H]1CCO[C@H]2Cn3cc(-c4nnc(Cc5ccc(F)cc5)s4)c(=O)c(O)c3C(=O)N12 [Example 3]
[1]
  IC50: 3.8 nM

## C[C@@H]1CCO[C@H]2Cn3cc(-c4nnc(Cc5ccc(F)cc5F)s4)c(=O)c(O)c3C(=O)N12 [Example 4]
[1]
  IC50: 1.3 nM
[2]
  EC50: 1.7 nM
